Assay [1] has as its target T1, full-length RORγt in Jurkat cells (Homo sapiens, UniProt P51449).
T1 construct: transcriptional activity of the full-length RORγt in Jurkat cells; host or cells: Jurkat cells (ATCC TIB-152)
T1 sequence (P51449 1-497 isoform P51449-2): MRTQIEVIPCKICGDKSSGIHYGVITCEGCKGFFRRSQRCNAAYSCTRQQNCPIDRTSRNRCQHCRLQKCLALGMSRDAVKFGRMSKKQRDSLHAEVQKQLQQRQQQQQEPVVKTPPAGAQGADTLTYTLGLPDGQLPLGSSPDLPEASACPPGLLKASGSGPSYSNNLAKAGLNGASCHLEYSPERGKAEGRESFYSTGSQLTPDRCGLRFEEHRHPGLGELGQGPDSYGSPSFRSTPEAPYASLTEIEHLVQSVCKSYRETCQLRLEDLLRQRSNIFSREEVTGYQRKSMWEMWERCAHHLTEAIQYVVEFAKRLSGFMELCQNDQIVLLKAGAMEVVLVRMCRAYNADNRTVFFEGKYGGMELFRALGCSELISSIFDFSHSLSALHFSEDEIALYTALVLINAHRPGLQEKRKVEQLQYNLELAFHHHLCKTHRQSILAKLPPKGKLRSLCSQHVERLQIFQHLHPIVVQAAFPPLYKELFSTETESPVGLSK
Nature of the assay: RORγt 5×RORE Assay in Jurkat Cells (Assay 2). Format: cell-based. The settings on record: 5×RORE luciferase reporter. In short, it runs like this: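 Inverse agonism measured as reduced NanoGlo signal from secreted NanoLuc in conditioned supernatant after 16-18 hrs compound exposure (37° C, 0.1% DMSO). Reporter: 5×RORE-driven secNluc, co-transfected with full-length RORγt into Jurkat cells cultured in delipidated-FBS, phenol-red-free RPMI.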
Background: In a reporter assay the amount or activity of a reporter protein is the signal.

The target of assay [2] is T2, recombinant RORγ Ligand Binding Domain (LBD) protein (Homo sapiens, UniProt P51449).
T2 construct: 6×His; GST
T2 sequence (P51449 269-508 limits assumed): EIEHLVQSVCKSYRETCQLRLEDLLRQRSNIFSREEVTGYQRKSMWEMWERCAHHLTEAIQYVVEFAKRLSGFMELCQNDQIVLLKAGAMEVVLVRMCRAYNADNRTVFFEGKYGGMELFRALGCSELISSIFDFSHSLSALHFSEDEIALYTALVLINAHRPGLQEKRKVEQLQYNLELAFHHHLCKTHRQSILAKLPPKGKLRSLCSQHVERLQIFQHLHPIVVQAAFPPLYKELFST
The assay is described as follows: Radio-Ligand RORγ Binding Assay (Assay 1). The following applies: radio-ligand competition, 25-hydroxy [26,27-3H]-cholesterol, RORγ LBD; read-out: Avg ROR Bind Ki. Put shortly:
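Cell-free SPA competition between compound and 25-hydroxy[26,27-^3H]-cholesterol for 6×His-GST-tagged RORγ LBD in 50 mM HEPES pH 7.4 with NaCl, MgCl2, glycerol, CHAPS, octylglucoside and DTT. Mix was shaken 20 min, held 10 min at rt, then read after poly-Lys YSi beads. IC50 came from a four-parameter fit, and Ki from radioligand KD.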

The mark [3] stands for this setting: Table 20, read-out: Avg ROR γt/5x IC5.

From patent US11008340B2, “Modulators of ROR-gamma” (Vitae Pharmaceuticals, LLC, priority 2015, dated 2021) come the findings set out here.

Like-named read-outs stand apart in the source and are kept apart here.

A word on the Ki: it is a dissociation constant, usually derived from enzyme kinetics or from competition with a known ligand.

For the compound `CC[C@@H]1CN(c2ncc(-c3ncco3)cn2)Cc2cc(C(=O)N[C@@H](CO)c3ccc(S(=O)(=O)CC)cc3)ccc21` (single isomer, unassigned) [Hy7-33.1], the IC50 in assay [1] (setting [3]) was below 100 nM. In assay [2], the inhibitory constant (Ki) is below 100 nM.
Consider `CC[C@H]1CN(c2ncc(-c3ncco3)cn2)Cc2cc(C(=O)N[C@@H](CO)c3ccc(S(=O)(=O)CC)cc3)ccc21` (single isomer, unassigned) [Hy7-33.2], for which the IC50 in assay [1] (setting [3]) lay within 100 to 1000 nM. The inhibition constant Ki in assay [2] is below 100 nM.
In the case of `CCOC(=O)c1cnc(N2Cc3cc(C(=O)N[C@@H](CO)c4ccc(S(=O)(=O)CC)cc4)ccc3[C@H](CC)C2)nc1` (single isomer, unassigned) [Hy7-34.1], in assay [1] (setting [3]), the IC50 was below 100 nM. The inhibitory constant (Ki) in assay [2] was below 100 nM.
For the compound `CCC1CN(C2CCC(C(F)(F)F)CC2)Cc2cc(C(=O)NC(CO)c3ccc(S(=O)(=O)CC)cc3)ccc21` (single isomer, unassigned) [Hy7-35.1], the IC50 in assay [1] (setting [3]) was below 100 nM. Further, the Ki in assay [2] is below 100 nM.
As to `CCC1CN(C2CCC(C(F)(F)F)CC2)Cc2cc(C(=O)NC(CO)c3ccc(S(=O)(=O)CC)cc3)ccc21` (single isomer, unassigned) [Hy7-35.2], the IC50 in assay [1] (setting [3]) is above 1000 nM. The Ki in assay [2] was below 100 nM.
`CCS(=O)(=O)c1ccc(CNC(=O)c2ccc3c(c2)CN(c2ncc(C(F)(F)F)cn2)C[C@H]3C(F)(F)F)cc1` (single isomer, unassigned) [Hy7-36.1]: in assay [1] (setting [3]), the IC50 was below 100 nM. Besides, in assay [2], the inhibitory constant (Ki) was below 100 nM.
For `CCS(=O)(=O)c1ccc(CNC(=O)c2ccc3c(c2)CN(c2ncc(C(F)(F)F)cn2)C[C@@H]3C(F)(F)F)cc1` (single isomer, unassigned) [Hy7-36.2], the IC50 in assay [1] (setting [3]) is above 1000 nM. For the same compound, the inhibition constant Ki in assay [2] was below 100 nM.
The corresponding values for `CC[C@@H]1CN(c2ncc(C(F)(F)F)cc2C#N)Cc2cc(C(=O)N[C@@H](CO)c3ccc(S(=O)(=O)CC)cc3)ccc21` (single isomer, unassigned) [Hy7-37.1] are below 100 nM and below 100 nM.
In the case of `CCS(=O)(=O)c1ccc([C@H](CO)NC(=O)c2ccc3c(OCC4CCOCC4)nc(C)cc3c2)cc1` [Hy1A-1, (R)-N-(1-(4-(ethylsulfonyl)phenyl)-2-hydroxyethyl)-3-methyl-1-((tetrahydro-2H-pyran-4-yl)methoxy)isoquinoline-6-carboxamide], the IC50 in assay [1] (read-out: Avg ROR γt/5x IC50) is above 1000 nM. For the same compound, in assay [2], the Ki was below 100 nM.
On to `CCS(=O)(=O)c1ccc(CNC(=O)c2ccc3c(OCc4ccc(C(F)(F)F)cc4)nccc3c2)cc1` [Hy1A-4, N-(4-(ethylsulfonyl)benzyl)-1-((4-(trifluoromethyl)benzyl)oxy)isoquinoline-6-carboxamide], for which the IC50 in assay [1] (read-out: Avg ROR γt/5x IC50) is 100 to 1000 nM. Moreover, the Ki in assay [2] was below 100 nM.
Take `CCS(=O)(=O)c1ccc(CNC(=O)c2ccc3c(OC[C@H]4CC[C@H](C(F)(F)F)CC4)nccc3c2)cc1` [Hy1A-5, N-(4-(ethylsulfonyl)benzyl)-1-(((1r,4r)-4-(trifluoromethyl)cyclohexyl)methoxy)isoquinoline-6-carboxamide]: the IC50 in assay [1] (read-out: Avg ROR γt/5x IC50) fell in the range of 100 to 1000 nM. Moreover, the Ki in assay [2] is below 100 nM.
`CCS(=O)(=O)c1ccc(CNC(=O)c2ccc3c(OC[C@H]4CC[C@H](C(F)(F)F)CC4)nc(C)cc3c2)cc1` [Hy1A-6, N-(4-(ethylsulfonyl)benzyl)-3-methyl-1-(((1r,4r)-4-(trifluoromethyl)cyclohexyl)methoxy)isoquinoline-6-carboxamide]: the IC50 in assay [1] (read-out: Avg ROR γt/5x IC50) is below 100 nM. Besides, the Ki in assay [2] was below 100 nM.
On to `CCS(=O)(=O)c1ccc([C@H](CO)NC(=O)c2ccc3c(OCc4ccc(C(F)(F)F)cc4)nccc3c2)cc1` [Hy1A-7, (R)-N-(1-(4-(ethylsulfonyl)phenyl)-2-hydroxyethyl)-1-((4-(trifluoromethyl)benzyl)oxy)isoquinoline-6-carboxamide], for which, in assay [1] (read-out: Avg ROR γt/5x IC50), the IC50 lay in the range of 100 to 1000 nM. The Ki in assay [2] is below 100 nM.
